Results published in patent US20210401776A1, “METHOD OF TREATING […] SYNDROMES USING FENFLURAMINE ENANTIOMERS” (ZOGENIX INTERNATIONAL LIMITED, priority 2018, published 2021).
“Also recorded” adds a separate entry of the source.

Assays:
[1] = system: dizocilpine-treated mice; test: step-through passive avoidance, dizocilpine-induced amnesia model; assay type: in vivo, Male Swiss OF-1 mice
[2] = system: 6-Hz seizures; test: acute mouse 6-Hz model (FIG. 9); assay type: in vivo, NMRI mice
Experimental: FIG. 9 includes two graphs that summarize the effects of racemic fenfluramine (abbreviated herein as “FA,” “FFA” or “FEN”) treatment in 6-Hz mice, as described in Example 2. FIG. 9A is a bar graph showing the percentage of animals protected for mice treated with vehicle, with […], and with 5 mg/kg FA. […] Protection being defined as the absence of a seizure within the expected time frame (i.e. below the minimum seizure duration in VHC treated mice).
Rapid screening of possible anticonvulsants can be performed by using acute (instead of chronic) animal models of drug-resistant seizures. […] In addition to the protocol using 44 mA pulses, more “lenient” versions of the model using 22 mA or 32 mA currents are sometimes employed.

[3] = system: dizocilpine-treated mice; test: dizocilpine-induced learning deficits, statements covering both tests (Y-maze and passive avoidance); assay type: in vivo, Male Swiss OF-1 mice; conditions: mouse, in vivo
Experimental: Experiments were conducted to determine the dose-response effects of fenfluramine (FEN) and norfenfluramine (NOR), racemate and (+)- and (−)-isomers, in an in vivo mouse model; the dizocilpine-induced amnesia model (described below) is used to test responses to drugs acting at the sigma-1 receptor (S1R) (Maurice et al., 1994a,b; Maurice, et al., 1998, Neuroscience 83:413-428).
The drugs were administered intraperitoneally (“ip” or “IP”) with dizocilpine (0.15 mg/kg) and tested in the spontaneous alternation test on day 1 and in the passive avoidance test on days 2-3.
The apparatus consisted of a 2-compartment box, with one illuminated with white polyvinylchloride (PVC) walls and a transparent cover (15×20×15 cm high), one with black polyvinylchloride walls and cover (15×20×15 cm high), and a grid floor. A guillotine door separated each compartment. A 60 W lamp was positioned 40 cm above the apparatus lit the white compartment during the experimental period. Scrambled foot shocks (0.3 mA for 3 s) were delivered to the grid floor using a shock generator scrambler (Lafayette Instruments, Lafayette, Mass., USA). The guillotine door was initially closed during the training session. Each mouse was placed into the white compartment. After 5 s, the door was raised. When the mouse entered the darkened compartment and placed all its paws on the grid floor, the door was gently closed and the 3-scrambled foot shock was delivered for 3 s. The step-through latency, i.e., the latency spent to enter the dark compartment, and the level of sensitivity to the shock were recorded. The latter was evaluated as: 0=no sign; 1=flinching reactions; 2=flinching and vocalization reactions. The retention test was carried out 24 h after training. Each mouse was placed again into the white compartment. After 5 s, the door was raised. The step-through latency was recorded up to 300 s. Animals entered the darkened compartment or were gently pushed into it and the escape latency, i.e., the time spent to return into the white compartment, was also measured up to 300 s. Results were expressed as median and interquartile (25%-75%) range.
The Y-maze is made of grey PVC. Each arm is 40 cm long, 13 cm high, 3 cm wide at the bottom, 10 cm wide at the top, and converged at an equal angle. Each mouse was placed at the end of one arm and allowed to move freely through the maze during an 8-min session. The series of arm entries, including possible returns into the same arm, were checked visually. An alternation was defined as entries into all three arms on consecutive occasions. The number of maximum alternations was therefore the total number of arm entries minus two and the percentage of alternation was calculated as: actual alternations/maximum alternations)×100. Parameters included the percentage of alternation (memory index) and total number of arm entries (exploration index).

[4] = system: secondarily generalized focal seizures; test: acute 44 mA 6 Hz test; assay type: in vivo, male CF-1 mice
Experimental: (§1) The antiseizure effects of racemic fenfluramine were assessed in three mouse models of acute and chronic seizures in naïve male CF-1 mice (Envigo (Indianapolis, Ind., USA); 18-35 g): 1) the acute maximal electroshock (MES) test; 2) the acute 44 mA 6 Hz test; and 3) the chronic corneal kindled mouse (CKM) model.
(§2) Methods: Testing progressed in three phases: identification, time course, and dose response. In the identification phase, mice were administered FFA (3, 10, 30 mg/kg, ip), vehicle, or retigabine (positive control, 20 or 50 mg/kg, ip) 0.5 or 2 hr before testing (n=4/group). […] Dose-dependent anticonvulsant activity of FFA was assessed by testing between 0.25 and 120 mg/kg (n=8/dose). The effect of FFA on mild motor impairment (MMI) in the fixed-speed rotarod (FSR) was assessed prior to the MES, 44 mA 6 Hz, and CKM tests.

[5] = system: corneal kindled mouse; test: chronic corneal kindled mouse (CKM) model; assay type: in vivo, male CF-1 mice
Experimental: as §1, §2

[6] = fixed-speed rotarod, minimal motor impairment (MMI); assay type: in vivo, male CF-1 mice
Experimental: as §2

[7] = system: Generalized tonic-clonic seizures; test: acute maximal electroshock (MES) test; assay type: in vivo, male CF-1 mice
Experimental: as §1, §2

[8] = system: dizocilpine-treated mice; test: spontaneous alternation in the Y-maze, dizocilpine-induced amnesia model; assay type: in vivo, Male Swiss OF-1 mice
[9] = system: WT scn1Lab+/+ zebrafish larvae; test: maximal tolerated concentration (MTC); assay type: in vivo, zebrafish (Danio rerio); conditions: no signs of toxicity in 12 out of 12 larvae within 48 hours of exposure
Experimental: To evaluate the maximal tolerated concentration (MTC) of each compound, 6 dpf-old WT scn1Lab+^+/+ zebrafish larvae were incubated in a 96-well plate (tissue culture plate, flat bottom, FALCON®, USA) with different concentrations of compound or VHC at 28° C. on a 14/10 hour light/dark cycle under standard aquaculture conditions (medium is replenished daily). Each larva was individually checked under the microscope during a period of 48 hours for the following signs of toxicity: decreased or no touch response upon a light touch of the tail, loss of posture, body deformation, edema, changes in heart rate or circulation and death. […] MTC was determined as 100 micromolar (μM) for (+)-fenfluramine and both norfenfluramine enantiomers. A MTC of 50 μM was determined for (−)-fenfluramine.

[10] = system: homozygous scn1Lab−/− mutants; test: zebrafish locomotor assay (total distance in large movements, lardist); assay type: in vivo, zebrafish (Danio rerio)
Text: (Baraban et al, 2013). Additional phenotypes of these mutants include: abnormal optokinetic response (OKR; 5 dpf); darkened pigmentation; death by 14 dpf; spontaneous seizure-like activity; abnormal (forebrain electrographic activity (3-7 dpf); seizure activity; lower levels of serotonin in scn1lab^−/− head homogenates at 7 dpf; zebrafish express orthologs of human serotonin (5HT) receptor subtypes at 5 dpf; nighttime hyperactivity (5 dpf); in open field-increased thigmotaxis. decreased movement (at 5 dpf); no differences in GABAergic neurons compared to wild type (5 dpf); 5-HT2a (hitr2aa/b) and S-HT2c; (htr2c11) orthologs expressed in larval heads in wild-type and scn1lab−/− mutants and in adult wild-type brains.
To assay the locomotor activity of homozygous scn1Lab−/− mutants and control WT scn1Lab+/+, zebrafish larvae were placed one larva per well in a 96-well plate in 100 μL of embryo medium from 4 to 8 days post-fertilization (dpf). Each day the larvae are tracked in an automated tracking device (ZebraBox™ apparatus; Viewpoint, Lyon, France) for 10 min after 30 min habituation (100-second integration interval). All recordings were performed at the same time during daytime period. The total distance in large movements was recorded and quantified using ZebraLab™ software (Viewpoint, Lyon, France). Data was pooled together from at least three independent experiments with at least 24 larvae per condition.
Scn1Lab^−/− mutants and WT scn1Lab+/+ larvae are arrayed in the same plate and treated at 6 days post fertilization (dpf) with the test compounds (25 μM), or VHC in individual wells of a 96-well plate. After incubation at 28° C. on a 14/10 hour light/dark cycle and 30-min chamber habituation 6 and 7 dpf larvae are tracked for locomotor activity for 10 min (100-second integration interval) under dark conditions. An incubation time of 1.5 hours is further referred to as short treatment (6 dpf). Furthermore, these larvae are analyzed after more than 22 hours incubation (7 dpf), i.e. long treatment. The total locomotor activity is quantified using the parameter lardist and plotted in cm. Data for each compound is pooled together from multiple independent experiments with at least 9 larvae per treatment condition.

[11] = in vivo; cited from earlier work
[12] = system: homozygous scn1Lab−/− mutants; test: epileptiform activity, open-field recordings in larval forebrain (LFP assay); assay type: in vivo, zebrafish (Danio rerio)
[13] = Table 5 STPA, drug alone 0.1 mg/kg ip
[14] = Table 5 STPA, drug alone 0.3 mg/kg ip
[15] = Table 6 STPA, drug alone 0.1 mg/kg ip
[16] = Table 6 STPA, drug alone 0.3 mg/kg ip
[17] = Table 5 YMT, drug alone 0.1 mg/kg ip
[18] = Table 5 YMT, drug alone 0.3 mg/kg ip
[19] = Table 6 YMT, drug alone 0.1 mg/kg ip
[20] = Table 6 YMT, drug alone 0.3 mg/kg ip

## CCNC(C)Cc1cccc(C(F)(F)F)c1 (racemic) [Fenfluramine, (RS)—N-ethyl-1-[3-(trifluoromethyl)phenyl]propan-2-amine]
[1]; Table 2 StepThrough/Passive Avoidance, drug alone 0.1 mg/kg IP
  PP (%): 11.0 ± 11.6%
[1]; Table 2 StepThrough/Passive Avoidance, drug alone 0.3 mg/kg IP
  PP (%): 55.7 ± 10.5%
[1]; Table 2 StepThrough/Passive Avoidance, drug alone 1 mg/kg IP
  PP (%): 40.8 ± 13.0 ^4%
[1]; [13]
  PP (%): 11.2 + 12.0%
[1]; [14]
  PP (%): 65.5 ± 12.1^5%
[1]; [15]
  PP (%): 16.8 ± 14.2%
[1]; [16]
  PP (%): 60.1 ± 13.9 ^5%
[2]; 20 and 5 mg/kg (FIG. 9)
  number of mice having seizures and duration of seizures: dose-dependent decrease
[2]; Mann-Whitney p<0.05 vs. VHC
  seizures in the mouse 6-Hz model: significantly reduced seizures
[2]; vehicle mice displayed it
  period of post-seizure aggression: did not
[3]
  behavior in vivo at S1R: behaved in vivo as S1R positive modulators
[4]; 4 hours
  protection: no protection
[4]; Mus musculus, 6 Hz 44 mA, 95% CI 31.9 to 66.7 mg/kg
  ED50: 47 mg/kg
[4]; mouse, in vivo
  activity in a model of focal seizures that secondarily generalize: some activity
[5]; 90 mg/kg
  mice died: 2 of 8
[5]; 120 mg/kg
  mice died: 6 of 8
[5]; all doses tested
  anticonvulsant activity: Minimal anticonvulsant activity at all doses tested
[6]; 6 Hz 44 mA section, 30 mg/kg at 0.25, 0.50, 1.00 and 2.00 hours
  Impairment: Some impairment found at a dose of 30 mg/kg at timepoints of 0.25, 0.50, 1.00, and
[6]; 6 Hz 44 mA section, 4 hours
  Impairment: no impairment
[6]; at doses used in the MES model
  Impairment: No impairment on rotarod at doses used in this model
[6]; male, CF-1, mouse, in vivo, intraperitoneal, reported under 6 Hz 44 mA, 95% CI 25.3 to 53.0
  TD50: 34.6 mg/kg
[7]; 0.5 hours, 3 mg/kg ip
  protection: 0%
[7]; 0.5 hours, 10 mg/kg ip
  protection: 0%
[7]; 0.5 hours, 30 mg/kg ip
  protection: 100%
[7]; 2.0 hours, 3 mg/kg ip
  protection: 75%
[7]; 2.0 hours, 10 mg/kg ip
  protection: 50%
[7]; 2.0 hours, 30 mg/kg ip
  protection: 100%
[7]; 4 hours post dosing
  protection, time course at last time point: 100% protection at 4 hours post dosing
[7]; Mus musculus, MES, Probit regression, 95% CI 1.4 to 5.1 mg/kg
  ED50: 2.9 mg/kg
[7]; acute administration
  anticonvulsant effect in the MES model: substantial anticonvulsant effect
[8]; Table 2 Y-Maze, drug alone 0.1 mg/kg IP
  PP (%): 1.3 ± 7.9%
[8]; Table 2 Y-Maze, drug alone 0.3 mg/kg IP
  PP (%): 37.9 ± 9.4%
[8]; Table 2 Y-Maze, drug alone 1 mg/kg IP
  PP (%): 59.8 ± 6.1 ^2%
[8]; [17]
  PP (%): 4.4 ± 7.7%
[8]; [18]
  PP (%): 33.6 ± 5.7^2%
[8]; [19]
  PP (%): -9.81 ± 7.6^ %
[8]; [20]
  PP (%): 26.6 ± 9.8 ^2%

## CCN[C@@H](C)Cc1cccc(C(F)(F)F)c1 [(+)-Fenfluramine, (2S)-N-ethyl-1-[3-(trifluoromethyl)phenyl]propan-2-amine]
[1]; Table 3 StepThrough/PassiveAvoidance, drug alone 0.1 mg/kg IP
  PP (%): 9.0 ± 15.8%
[1]; Table 3 StepThrough/PassiveAvoidance, drug alone 0.3 mg/kg IP
  PP (%): 24.8 ± 14.9 ^4%
[1]; [13]
  PP (%): 11.6 ± 13.6%
[1]; [14]
  PP (%): 35.2 ± 14.2^6%
[1]; [15]
  PP (%): 15.6 ± 17.3%
[1]; [16]
  PP (%): 31.9 ± 16.3 ^6%
[9]
  maximum tolerated concentration (MTC): 100 µM
[10]; Table 1, locomotor and LFP assays
  Conclusions: (+)-FFA is more effective than racemic FFA
[10]; scn1Lab−/− mutants
  antiseizure activity in the zebrafish locomotor assay: more efficacious than (−)-fenfluramine
[10]; scn1Lab−/− mutants, fixed concentration, FIG. 3
  reduction in seizure behavior: 84%
[10]; zebrafish, in vivo
  potency in treating symptoms of epilepsy compared to levofenfluramine: approximately twice
[3]
  behavior in vivo at S1R: behaved in vivo as S1R positive modulators
[11]
  mean elimination half-life: 19 h
[12]; 50 micromolar, FIGS. 4 and 5
  anti-epileptiform activity (frequency and cumulative duration of epileptiform events over 10 minutes): comparable
[12]; Table 1, 25, 59 and 100 μM, oral via embryo medium
  LFP Assay: Most effective in reducing spikes; also recorded: Normal dose-response; higher
[8]; Table 3 Y-Maze, drug alone 0.1 mg/kg IP
  PP (%): 1.3 ± 7.9%
[8]; Table 3 Y-Maze, drug alone 0.3 mg/kg IP
  PP (%): 37.9 ± 9.4 ^2%
[8]; [17]
  PP (%): 8.68 ± 8.7%
[8]; [18]
  PP (%): 40.2 ± 11.3^3%
[8]; [19]
  PP (%): 0.4 ± 11.5%
[8]; [20]
  PP (%): 46.7 ± 8.9 ^3%
